Results taken from patent US20220160824A1, “COMPOUNDS FOR USE IN THE TREATMENT OF PARKINSON'S DISEASE” (UNIVERSITY OF THE WITWATERSRAND, JOHANNESBURG, priority 2018, published 2022).
Each block holds one compound with its values, some of them ahead of it.

Legend:
SH-SY5Y cells = test: MTT cell viability assay, SH-SY5Y cells treated with α-Synuclein; format: cell-based; settings: for cell viability after α-Synuclein treatment: 200 nM and 500 nM
Text: The HEK293 cell line was used as it is commonly used in Parkinson's disease (PD) research (Schlachetzki et al., 2013). The cell culture media was made up from Dulbecco's Modified Eagle Medium (DMEM) (Hyclone) and Ham's F12 with a ratio of 1:1. The mixture was supplement with 1% penicillin/streptomycin (P/S) and 15% foetal bovine serum […] to create a supplemented media that will provide the cells with essential nutrients that include growth factors and P/S to prevent contamination with bacteria and fungi. The nutrient media was renewed when it was required. The cells were cultured at in an incubator, that maintains the humidity, pH, at 37° C. and 5% CO2 atmospheric composition to mimic in vivo conditions. Once the cells reached a confluency of 80%, they were passaged by washing with phosphate-buffered saline (PBS) followed by resuspension by the addition of trypsin-EDTA. Once the cells were re-suspended media was added to inactivate the trypsin and the cell suspension was diluted into a new flask. Fresh media was added to both flasks. Both transfected and non-transfected cells were harvested for further applications. […] SH-SY5Y cells were also received after transfection was confirmed. The cells were maintained in the same conditions as the HEK293 cells. The SH-SY5Y cells were used for the […] cell viability assay. LRP::FLAG overexpressing HEK293 cells in the presence of 1-Methyl-4-phenylpyridinium iodide (MPP+), a PD inducer, was also investigated. Late stage colorectal carcinoma cells (DLD-1) cells were used for certain confocal microscopy studies with parkin protein.
The effects of treatment of cells with a specific substance or protein on cell viability can be determined by the MTT (3-(4,5-dimethylthiazol-2-yl)-2,5-diphenyltetrazolium bromide) assay (Riss et al., 2016). […] The samples were then added to a 96-well plate at 100 μl in duplicates and the absorbance was read at 570 nm using an ELISA plate reader. High absorbance is indicative of a high number of viable cells. […]

HEK293 cells = test: MTT cell viability assay, HEK293 cells treated with α-Synuclein; format: cell-based, human; settings: for cell viability after α-Synuclein treatment: 200 nM and 500 nM
Text: The effects of treatment of cells with a specific substance or protein on cell viability can be determined by the MTT (3-(4,5-dimethylthiazol-2-yl)-2,5-diphenyltetrazolium bromide) assay (Riss et al., 2016). MTT is a tetrazolium salt that is yellow in colour that is converted to the purple formazan crystals by the mitochondrial enzyme succinate dehydrogenase (Stockert et al., 2012). The succinate dehydrogenase is only active in viable cells and therefore only viable cells will convert MTT to formazan (Stockert et al., 2012). The MTT assay was chosen over other cell viability assays, such as the ATP assay, the resoazurin reduction assay and the protease viability marker assay, due to its high throughput screening. For this study, HEK293 cells were first seeded at 1.4×10^4 cells per well in a 24-well plate while SH-SY5Y cells were seeded at 1.8×10^4 due to a slower growth rate. The cells were then incubated overnight to allow reattachment. Cells were then treated with 200 nM and 500 nM α-Synuclein, in order to induce a PD-like state. Following treatment, the cells were incubated for 48 hours to determine the effects of α-Synuclein on cell viability […]. The known apoptosis inducer, protocatechuic acid (PCA) was used as the positive control. Following incubation, 200 μl of […] was then added to each well and incubated for 2 hours at 37° C. to allow the formation of formazan crystals. The remaining MTT was discarded and the formazan crystals were dissolved by the addition of 200 μl dimethyl sulfoxide (DMSO). The samples were then added to a 96-well plate at 100 μl in duplicates and the absorbance was read at 570 nm using an ELISA plate reader. High absorbance is indicative of a high number of viable cells.
Statistical evaluation of the data was conducted by performing the […] with a confidence interval of 95% and as a result, results were considered significant when the p-value was lower than 0.05 was considered significant (*p<0.05, **p<0.01 and ***p<0.001) (Johnston, 1970).

[1] = molecular target: 37 kDa/67 kDa laminin receptor precursor/high affinity laminin receptor (LRP/LR) (human) (UniProt P08865); test: cell-based or functional assay

Chain of parkin (O60260 whole entry): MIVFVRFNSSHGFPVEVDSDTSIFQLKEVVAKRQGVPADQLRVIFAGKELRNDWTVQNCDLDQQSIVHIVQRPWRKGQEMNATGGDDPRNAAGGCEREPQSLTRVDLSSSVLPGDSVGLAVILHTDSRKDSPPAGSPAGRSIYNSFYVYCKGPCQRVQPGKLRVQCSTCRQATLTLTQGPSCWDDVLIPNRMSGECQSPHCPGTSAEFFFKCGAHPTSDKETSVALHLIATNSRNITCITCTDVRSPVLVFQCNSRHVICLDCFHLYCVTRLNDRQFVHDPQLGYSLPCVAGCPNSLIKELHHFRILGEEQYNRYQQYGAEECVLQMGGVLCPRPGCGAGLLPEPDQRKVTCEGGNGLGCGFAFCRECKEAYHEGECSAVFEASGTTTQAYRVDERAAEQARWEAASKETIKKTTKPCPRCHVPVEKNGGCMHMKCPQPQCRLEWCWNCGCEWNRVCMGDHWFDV

Compound: O=C(O)c1ccc(O)c(O)c1 [PCA, protocatechuic acid]
- cell viability with positive control (SH-SY5Y cells; SH-SY5Y transfected and non-transfected cell lines): significant decrease
- cell viability with positive control (HEK293 cells; HEK293 transfected and non-transfected cell lines): significant decrease

- percent of LRP colocalizing with parkin, confocal microscopy, DLD-1 cells overexpressing LRP::FLAG (total LRP stained) [1]: 22%
- percent of LRP/LR colocalizing with parkin, confocal microscopy, DLD-1 cells [1]: 54%
- percent of parkin colocalizing with LRP, confocal microscopy, DLD-1 cells overexpressing LRP::FLAG (total LRP stained) [1]: 99%
- percent of parkin colocalizing with LRP/LR, confocal microscopy, DLD-1 cells [1]: 59%
Compound: parkin (from UniProt O60260 1-465) (enzyme)

Compound: α-Synuclein
- cell viability after α-Synuclein treatment (SH-SY5Y cells; LRP::FLAG overexpressing and non-transfected SH-SY5Y cells): no decrease
- cell viability after α-Synuclein treatment (SH-SY5Y cells; SH-SY5Y non-transfected cells, 48 hours): no significant increase or decrease
- cell viability after α-Synuclein treatment (HEK293 cells; HEK293 non-transfected cells, 48 hours): decreased significantly
- cell viability after α-Synuclein treatment (HEK293 cells; LRP::FLAG overexpressing and non-transfected HEK293 cells): slight decrease
